In ChEMBL document CHEMBL1152655, “Novel acenaphtho[1,2-b]pyrrole-carboxylic acid family: synthesis, cytotoxicity, DNA-binding and cell cycle evaluation” (Bioorg Med Chem, 2009):
Calls of active or inactive are those of the source. No cut-off for these calls is given here.

Legend:
Calf thymus DNA [1] = experiment: Binding affinity to calf thymus DNA assessed as conformational change at 10 uM by CD spectra; format: nucleic-acid assay; conditions: Bos taurus
HeLa [2] = experiment: Cell cycle arrest in human HeLa cells by accumulation at S phase at 21.08 uM by flow cytometry (Rvb=28.20%); format: functional
A-375 = experiment: Cytotoxicity against human A375 cells after 48 hrs by MTT assay; format: functional, cell-based; conditions: A-375, 48 h
HeLa [3] = experiment: Cell cycle arrest in human HeLa cells by accumulation at G2 phase at 21.08 uM by flow cytometry (Rvb=12.86%); format: functional
HCT-8 = experiment: Cytotoxicity against human HCT8 cells after 48 hrs by MTT assay; format: functional, cell-based; conditions: HCT-8, 48 h
HeLa [4] = experiment: Cell cycle arrest in human HeLa cells assessed as apoptotic cells at 21.08 uM by flow cytometry relative to control; format: functional
HL-60 = experiment: Cytotoxicity against human HL60 cells after 48 hrs by MTT assay; format: functional, cell-based; conditions: HL-60, 48 h
HeLa [5] = experiment: Cell cycle arrest in human HeLa cells by accumulation at G1 phase at 3.01 uM by flow cytometry (Rvb=58.94%); format: functional
HeLa [6] = experiment: Cell cycle arrest in human HeLa cells by accumulation at G2 phase at 3.01 uM by flow cytometry (Rvb=12.86%); format: functional
HeLa [7] = experiment: Cell cycle arrest in human HeLa cells by accumulation at S phase at 3.01 uM by flow cytometry (Rvb=28.20%); format: functional
Calf thymus DNA [8] = experiment: Binding affinity to calf thymus DNA assessed as DNA intercalation at 30 uM by UV-Vis absorption studies; format: nucleic-acid assay; conditions: Bos taurus
HeLa [9] = experiment: Cell cycle arrest in human HeLa cells by accumulation at G1 phase at 12.05 uM by flow cytometry (Rvb=58.94%); format: functional
Calf thymus DNA [10] = experiment: Binding affinity to calf thymus DNA; format: nucleic-acid assay; conditions: Bos taurus
HeLa [11] = experiment: Cell cycle arrest in human HeLa cells by accumulation at G2 phase at 12.05 uM by flow cytometry (Rvb=12.86%); format: functional
HeLa [12] = experiment: Cell cycle arrest in human HeLa cells by accumulation at S phase at 12.05 uM by flow cytometry (Rvb=28.20%); format: functional
Calf thymus DNA [13] = experiment: Binding affinity to calf thymus DNA assessed as increase in solution viscosity by viscometric titration; format: nucleic-acid assay; conditions: Bos taurus
HeLa [14] = experiment: Cell cycle arrest in human HeLa cells assessed as apoptotic cells at 3.01 uM by flow cytometry relative to control; format: functional
HeLa [15] = experiment: Cytotoxicity against human HeLa cells after 48 hrs by MTT assay; format: functional, cell-based
HeLa [16] = experiment: Cell cycle arrest in human HeLa cells by accumulation at G1 phase at 21.08 uM by flow cytometry (Rvb=58.94%); format: functional
MCF7 = experiment: Cytotoxicity against human MCF7 cells after 48 hrs by MTT assay; format: functional, cell-based; conditions: MCF7, 48 h
HeLa [17] = experiment: Cell cycle arrest in human HeLa cells assessed as apoptotic cells at 12.05 uM by flow cytometry relative to control; format: functional
HeLa [18] = experiment: Cell cycle arrest in human HeLa cells assessed as apoptotic cells at 20.06 uM by flow cytometry relative to control; format: functional
HeLa [19] = experiment: Cell cycle arrest in human HeLa cells assessed as apoptotic cells at 28.65 uM by flow cytometry relative to control; format: functional
HeLa [20] = experiment: Cell cycle arrest in human HeLa cells assessed as apoptotic cells at 11.46 uM by flow cytometry relative to control; format: functional
HeLa [21] = experiment: Cell cycle arrest in human HeLa cells by accumulation at G2 phase at 28.65 uM by flow cytometry (Rvb=12.86%); format: functional
HeLa [22] = experiment: Cell cycle arrest in human HeLa cells by accumulation at G2 phase at 20.06 uM by flow cytometry (Rvb=12.86%); format: functional
HeLa [23] = experiment: Cell cycle arrest in human HeLa cells by accumulation at S phase at 11.46 uM by flow cytometry (Rvb=28.20%); format: functional
HeLa [24] = experiment: Cell cycle arrest in human HeLa cells by accumulation at G2 phase at 11.46 uM by flow cytometry (Rvb=12.86%); format: functional
HeLa [25] = experiment: Cell cycle arrest in human HeLa cells by accumulation at S phase at 20.06 uM by flow cytometry (Rvb=28.20%); format: functional
HeLa [26] = experiment: Cell cycle arrest in human HeLa cells by accumulation at G1 phase at 28.65 uM by flow cytometry (Rvb=58.94%); format: functional
HeLa [27] = experiment: Cell cycle arrest in human HeLa cells by accumulation at G1 phase at 11.46 uM by flow cytometry (Rvb=58.94%); format: functional
HeLa [28] = experiment: Cell cycle arrest in human HeLa cells by accumulation at S phase at 28.65 uM by flow cytometry (Rvb=28.20%); format: functional
HeLa [29] = experiment: Cell cycle arrest in human HeLa cells by accumulation at G1 phase at 20.06 uM by flow cytometry (Rvb=58.94%); format: functional

Structure (SMILES)	IC50 (A-375) [µM]	IC50 (HCT-8) [µM]	IC50 (HL-60) [µM]	K (Calf thymus DNA [10]) [×10⁵ /M]	IC50 (HeLa [15]) [µM]	IC50 (MCF7) [µM]	other results
O=C(O)C1=C2C(=NC1=O)c1cccc3c(N4CCCCC4)ccc2c13	18.4	24.4	20.5	2.91	20.6	14.5	Activity (Calf thymus DNA [1]): Active; Activity (HeLa [2]): 33.58%; Activity (HeLa [3]): 12.75%; Activity (HeLa [4]): 11.95%; Activity (HeLa [5]): 64.63%; Activity (HeLa [6]): 3.75%; Activity (HeLa [7]): 31.63%; Activity (Calf thymus DNA [8]): Active; Activity (HeLa [9]): 60.02%; Activity (HeLa [11]): 9.46%; Activity (HeLa [12]): 30.52%; Activity (Calf thymus DNA [13]): Dose-dependent effect; Activity (HeLa [14]): 4.34%; Activity (HeLa [16]): 53.67%; Activity (HeLa [17]): 4.81%
CN1CCN(c2ccc3c4c(cccc24)C2=NC(=O)C(C(=O)O)=C23)CC1	28.5	72.1	51	6.13	17.2	14.9	
O=C(O)C1=C2C(=NC1=O)c1cccc3c(N4CCSCC4)ccc2c13	> 100	> 100	76.9	2.69	48.9	> 100	
CCN(CC)CCNc1ccc2c3c(cccc13)C1=NC(=O)C(C(=O)O)=C12	71.8	38.1	19.8	5.48	10.4	16.5	
CN(C)CCNc1ccc2c3c(cccc13)C1=NC(=O)C(C(=O)O)=C12	> 100	> 100	47.9	5.96	89.7	97	
CN(C)CCCNc1ccc2c3c(cccc13)C1=NC(=O)C(C(=O)O)=C12	> 100	> 100	13.1	6.01	29.3	70.5	Activity (HeLa [18]): 11.13%; Activity (Calf thymus DNA [1]): Active; Activity (HeLa [19]): 13.89%; Activity (HeLa [20]): 5.22%; Activity (HeLa [21]): 17.49%; Activity (HeLa [22]): 18.6%; Activity (Calf thymus DNA [8]): Active; Activity (HeLa [23]): 35.96%; Activity (HeLa [24]): 13.17%; Activity (Calf thymus DNA [13]): Dose-dependent effect; Activity (HeLa [25]): 45.43%; Activity (HeLa [26]): 34.1%; Activity (HeLa [27]): 50.87%; Activity (HeLa [28]): 48.41%; Activity (HeLa [29]): 35.97%
CCCCNc1ccc2c3c(cccc13)C1=NC(=O)C(C(=O)O)=C12	50.1	48.1	24.1	4.73	30.3	> 100	
O=C(O)C1=C2C(=NC1=O)c1cccc3c(N4CCOCC4)ccc2c13	79.4	> 100	42.2	2.34	36.2	18	
O=C(O)C1=C2C(=NC1=O)c1cccc3c(NCc4cccs4)ccc2c13	> 100	> 100	90	6.75	84.3	> 100	
COC(=O)C1=C2C(=NC1=O)c1cccc3c(N4CCSCC4)ccc2c13	> 100	> 100	> 100		26.9	68	
N#CC1=C2C(=NC1=O)c1cccc3c(N4CCSCC4)ccc2c13	48.7	25.8	28.6		15.7	41.2	
